Here are results for 3 compounds from US11357786B2, “Synthetic disugar hydrocarbons as natural analogs to control microbial behaviors” (Syracuse University, priority 2014, dated 2022).

In assay [1] the test system is PAO1 biofilm. The assay is described as follows: Crystal violet based static biofilm inhibition assay, DSHs in LB media (Examples 2 and 4). Conditions: for Inhibition of PAO1 biofilm formation (surface attached): 160 μM, 24 h, LB media; for Anti-biofilm activity (biofilm inhibition): concentration not given. It is filed as cell-based, Pseudomonas aeruginosa. The method in brief:
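PAO1 subculture (OD600 ~0.1) was grown statically in LB at 37° C for 24 h with or without DSHs (screened at 160 μM). Surface-attached biofilm was then stained with 0.1% crystal violet, solubilised in 30% AcOH and read at 600 nm. Values are the mean of 4 wells.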

The test system of assay [2] is 1-day old PAO1 biofilm. As to the kind of experiment: Crystal violet assay for dispersion of 1-day old biofilm, DSHs (Examples 2 and 4). It counts as cell-based, Pseudomonas aeruginosa. Particulars: 160 μM, another 24 h. The protocol:
The effect that DSHs have on the adhesion of PAO1-EGFP on polystyrene surface (microtiter plate) was also examined. PAO1-EGFP is a P. aeruginosa strain that constitutively expresses green fluorescent protein. In the adhesion assays, PAO1-EGFP was grown in microtiter plate for 24-hours in LB-media with (160 μM) or without DSHs. After 24-hours, the fluorescent signal obtained from surface adhered PAO1-EGFP was measured. Percent reduction in fluorescence was calculated by comparing fluorescent signal from PAO1-EGFP grown in LB-media with the signal from wells that had DSHs (FIG. 29A). To study the effect of DSHs on biofilm formation, Pseudomonas aeruginosa (PAO1) was grown in LB-media with (160 μM) or without DSHs at 37° C. under static conditions within wells of microtiter plates. After 24 hours, the surface attached biofilms adhering to the bottom of the wells were stained with crystal-violet dye and the biofilm was quantified by measuring absorbance at 600 nm (OD600). The percent inhibition was calculated by comparing biofilm content of wells with no added agents (control) with the biofilm content from wells that had 160 μM of DSHs (FIG. 29A). Similar to inhibition, the surface attached biofilm after dispersion with DSHs was quantified with crystal-violet staining and absorbance measurement at 600 nm, except that for dispersion, biofilm was first grown for 1 day in just LB-media without any DSHs after which DSHs were added and plates were incubated for additional 24 hours followed by quantification (FIG. 29B).
Crystal violet based assay for quantifying dispersion of 1-day old PAO1 biofilms were Plate for set up similar to inhibition assay with a slight modification. Wells of the micro-titer plate was inoculated with (200 μL) bacterial subculture (PAO1 subculture OD600 ˜0.1). The plates were incubated at 37° C. for 24 hours to allow biofilm formation. After 24 hours, bacterial culture was gently pipetted out and appropriate volume of DSH were added followed by addition of fresh LB medium (200 μL). The microtiter plate was incubated for an additional 24 hours at 37° C., following which, similar to work up of inhibition assay, culture was removed, wells were washed and CV-dye was introduced, followed by washing and destaining with 30% AcOH solution in water and quantification at 600 nm. Here again, only the surface attached biofilm dispersed was reported by comparing wells with DSHs with wells with no agent.
Dose dependence assays for biofilm inhibition and dispersion. […] Both for biofilm inhibition and dispersion, predetermined volumes of DSH stocks were added to the assigned wells to span a concentration range between 0.5 μM-170 μM. Percent biofilm inhibition of dispersion was calculated by comparing to wells with no agent. The percent biofilm inhibition or dispersion was plotted versus concentration of DSHs. The linear values were logarithmically curve fitted using equation […]. The half maximal inhibitory concentration for both biofilm inhibition and dispersion (IC50 and DC50) were thus obtained.

Assay [3] relates to nonswarming P. aeruginosa mutant rhlA. The assay is described as follows: Swarming motility of nonswarming rhlA mutant on soft agar (reactivation / agonist assay). It is filed as cell-based, Pseudomonas aeruginosa. Particulars: 85 μM in soft agar (0.5%), 24 h. Put shortly:
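rhlA transposon mutant of PAO1 (3 μl, OD600 0.4–0.6) inoculated on M8 soft agar (0.2% glucose, 0.5% casamino acids, 1 mM MgSO4, 0.5% agar) with test compound to find swarming agonists. Incubated 12 h at 37 °C plus 12 h at room temperature; swarm area measured by weighing paper cut-outs of imaged swarms.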

The test system of assay [4] is wild type PAO1. The assay is described as follows: Swarming motility of wild type PAO1 on soft agar (antagonist assay). It is filed as cell-based, Pseudomonas aeruginosa. Particulars: for Swarming motility of wild type PAO1: 85 μM in soft agar, 24 h; for Effect on PAO1 swarming: concentration not given. Put shortly: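 Wild-type PAO1 culture (OD600 ~0.4–0.6, 3 μl) spotted on M8 swarm agar with 0.2% glucose, 0.5% casamino acids, 1 mM MgSO4 and 0.5% agar. Plates incubated 12 h at 37 °C then 12 h at room temperature; swarm area measured by cutting and weighing printed plate images.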

The subject of assay [5] is PAO1-EGFP. The assay is described as follows: Fluorescence adhesion assay on polystyrene, DSHs (Examples 2 and 4). It is filed as cell-based, Pseudomonas aeruginosa. Conditions: 160 μM. The protocol: The ability of DSHs was tested to inhibit Pseudomonas aeruginosa adhesion, biofilm and to disperse pre-formed biofilm. To quantify the amount of PAO1/EGFP attached on the surface of micro titer plates with or without the synthesized DSHs, fluorescence emitted by green fluorescent proteins (GFP) was quantified (see supporting info for details). Crystal violet (CV) based static biofilm assay (see supporting info) was used to screen the anti-biofilm potencies of all synthesized agents. Both surface attached (SA) (FIG. 17) and total (SA+air-liquid interface) biofilm of P. aeruginosa was quantified. […] CV assays were also used to quantify the amount of P. aeruginosa biofilm remaining after dispersion experiments (FIG. 19). Initially, all agents were screen for anti-biofilm activities (both inhibition and dispersion) at 160 μM. […]
The effect that DSHs have on the adhesion of PAO1-EGFP on polystyrene surface (microtiter plate) was also examined. […] After 24-hours, the fluorescent signal obtained from surface adhered PAO1-EGFP was measured. Percent reduction in fluorescence was calculated by comparing fluorescent signal from PAO1-EGFP grown in LB-media with the signal from wells that had DSHs (FIG. 29A). […] After 24 hours, the surface attached biofilms adhering to the bottom of the wells were stained with crystal-violet dye and the biofilm was quantified by measuring absorbance at 600 nm (OD600). […]

In assay [6] the test system is planktonic Pseudomonas aeruginosa (PAO1). As to the kind of experiment: Planktonic bacterial growth (OD600 growth curve). Particulars: 160 μM, LB. It counts as cell-based. As for the experimental part:
Antimicrobial activities of disaccharide hydrocarbons against planktonic growth. Overnight inoculum of PAO1 was sub-cultured to an OD600˜0.1 and then aliquoted (200 μL) into the wells of a micro-titer plate and DSHs (˜160 μM) were then added to assigned wells. Wells with no-agents were created as a positive control. The micro-titer plate was then placed in a rotary shaker (250 rpm at 37° C.) and optical density was measured after regular intervals of time using Biotek ELx800 ™ absorbance microplate reader (BioTek Instruments, Inc., Winooski, Vt.) using Gen5™ data analysis software. The OD600 values were taken in sterile conditions over 24 h. The OD600 values were plotted against time to obtain a growth curve for planktonic growth with or without agents.
Optical density was measured using Biotek ELx800 ™ absorbance microplate reader (BioTek Instruments, Inc., Winooski, Vt.) using Gen5™ data analysis software. The OD600 values were taken in sterile conditions at 0, 2, 4, 6, 8, 10, 12, and 24 h after bacterial culture inoculation in 96-well polystyrene plate with and without agents.

The subject of assay [7] is PAO1 and rhlA. As to the kind of experiment: Bacterial growth on soft agar swarm plate. It counts as cell-based, Pseudomonas aeruginosa. The protocol:
Swarm agar plates were based on M8 medium supplemented with 0.2% glucose, 0.5% casamino acid, 1 mM MgSO4 and […]. 17 For each set of experiment all the swarm plates were poured from same batch of agar and allowed to dry for 1 h before inoculation of bacteria. Bacterial culture (3 μl) (wild type PAO1 or rhlA mutant) with OD600 between […] was inoculated on the solidified agar plates. Swarm agar plates were incubated at 37° C. for 12 h and then incubated for additional 12 h at room temp. Chronological images of swarm plates were taken using a camera. To measure swarming area, sizes of the petridish in all swarming images were adjusted to a pre-assigned diameter and images were printed on copying paper (Xerox-business 4200). Weight of a 1 cm^2 copy paper square was roughly ˜8.0 mg. swarming images on the copy paper were cut and weighed, the swarm area was calculated by dividing the weight of image by weight of 1 cm^2 square (8 mg).

Entries after “also recorded” stand apart in the source; their conditions may differ.

Consider dodecyl-β-cyclodextrin [DβCDS (18)], for which, in assay [1], the “Inhibition of PAO1 biofilm formation (surface attached)” value (“Inhibition of PAO1 biofilm formation” below) was “insignificant biofilm inhibition” and the “Anti-biofilm activity (biofilm inhibition)” value is “weak anti-biofilm activity; also recorded: did not show anti-biofilm activities”. Moreover, in assay [1] (listed as 18: DβCDS, 160 µM), the “Inhibition of PAO1 biofilm formation” value is given as “increased the biofilm content”. For the same compound, in assay [2], the “Dispersion of 24-h old PAO1 biofilm” value was “promoted biofilm formation instead of causing dispersion”. Besides, the “Swarming motility of rhlA mutant” value in assay [3] is reported as “no significant effect on the swarming motility”. In addition, in assay [4], the “Swarming motility of wild type PAO1” value is “no significant effect on the swarming motility” and the “Effect on PAO1 swarming” value is reported as “no apparent effect on PAO1 swarming”. Further, the “Adhesion inhibition of PAO1-EGFP on polystyrene” value in assay [5] is 29%.

Turning to `CCCCCCCCCCCCO[C@@H]1O[C@@H](C)[C@H](O)[C@@H](O)[C@H]1O` [DαR (9), dodecyl-α-rhamnoside], the “Inhibition of PAO1 biofilm formation” value in assay [1] (listed as 8: DαR, 160 µM) was “poor anti-biofilm activity”. In assay [1], the “Anti-biofilm activity (biofilm inhibition)” value is recorded as “weak anti-biofilm activity”. In assay [3], the “Swarming motility of rhlA mutant” value was “no apparent effect on rhlA”. In addition, in assay [4], the “Swarming motility of wild type PAO1” value is recorded as “inhibited the swarming motility of wild type PAO1” and the “Effect on PAO1 swarming” value is given as “PAO1 swarming inhibitors”. Besides, the “Adhesion inhibition of PAO1-EGFP on polystyrene” value in assay [5] is given as 63%.

Consider `CC(C)=CCC/C(C)=C/CC/C(C)=C/CO[C@@H]1O[C@H](CO)[C@@H](O[C@@H]2O[C@H](CO)[C@@H](O)[C@H](O)[C@H]2O)[C@H](O)[C@H]1O` [FβC (11), farnesyl-β-cellobioside], for which the “Inhibition of PAO1 biofilm formation” value in assay [1] (listed as 11: FβC, 160 µM) is “poor anti-biofilm activity”. Also, in assay [1], the “Anti-biofilm activity (biofilm inhibition)” value is listed as “did not show anti-biofilm activities”. In addition, the “Inhibition of planktonic growth of Pseudomonas aeruginosa” value in assay [6] is “did not inhibit the planktonic growth”. In addition, the “Bacterial growth on soft-agar plate” value in assay [7] (160 μM, PAO1 and rhlA) was “complete abolition of bacterial growth on the soft-agar plate”. In assay [7] (PAO1, concentration not stated), the “Bacterial growth on soft agar (~0.5%) plate” value was “inhibited bacterial (PAO1) growth on a soft agar”. In addition, the “Swarming motility of rhlA mutant” value in assay [3] is “weak activation of rhlA swarming motility”. For the same compound, in assay [4], the “Swarming motility of wild type PAO1” value is reported as “weak promotion of swarming motility of wild type PAO1” and the “Effect on PAO1 swarming” value is recorded as “no apparent effect on PAO1 swarming”.
